Source: publication PMC10891803, “Seleno-Warfare against Cancer: Decoding Antitumor Activity of Novel Acylselenoureas and Se-Acylisoselenoureas” (Pharmaceutics, 2024)
Like-named read-outs stand apart in the source and are kept apart here.

What was measured:
MDA-MB-231 cells = conditions: cited from earlier work
DU-145 [1] = test system: DU-145; parameters: method as in PMID 11306488; conditions: cited from earlier work
DU-145 [2] = assay: MTT cell viability assay, DU-145; format: cell-based, human; conditions: 48 h
Experimental: (§1) The cell lines were purchased from the American Type Culture Collection (ATCC). The four tumor cell lines used were as follows: MDA-MB-231 (triple-negative breast cancer), HTB-54 (lung cancer), DU-145 (prostate cancer), and HCT-116 (colon cancer), and the non-tumoral cell line 185-B5 (mammary tissue) were grown in Roswell Park Memorial Institute (RPMI) 1640 medium culture (Thermo Scientific, USA), supplemented with 10% fetal bovine serum (FBS) (Thermo Scientific, USA) and 1% of antibiotics (10,000 units/mL penicillin and 10 mg/mL streptomycin (Thermo Scientific, USA)). Cells were preserved in tissue culture flasks at 37 °C and 5% CO2. The culture medium was replaced every two to three days.
(§2) Cell viability was determined using the MTT colorimetric assay. A total of 10,000 cells were seeded in each well in a 96-well plate for 24 h. Then, cells were incubated with the corresponding concentration of each tested compound and with DMSO (1%) as control for 48 h. Each compound was dissolved in DMSO at a stock concentration of 0.01 M. Firstly, each compound was tested at 2 concentrations (10 µM and 50 µM) in four human tumoral cell lines MDA-MB-231, HTB-54, DU-145, and HCT-116. Serial dilutions from stock concentration with culture medium were prepared. […] The cell viability was determined by the addition of 20 µL of MTT and its incubation for 2.5 h. Later, the culture medium was removed, and 50 µL of DMSO was added to dissolve formazan crystals. The absorbance was measured at 550 nm. Inhibitory concentration 50 (IC50) and selectivity index (SI) were calculated. Three different experiments were performed independently.
(§3) Cell viability results are expressed as the mean ± standard deviation (SD), and experiments were independently performed thrice in triplicates. IC50 values were determined using a non-linear curve regression analysis calculated by OriginPro 9.0 software.

HTB-54 = assay: MTT cell viability assay, HTB-54; format: cell-based, human; conditions: 48 h
Experimental: as §1, §2, §3

MDA-MB-231 = assay: MTT cell viability assay, MDA-MB-231; format: cell-based, human
Experimental: as §1, §2, §3

184-B5 = assay: MTT cell viability assay, non-malignant 184-B5; format: cell-based; conditions: Homo sapiens, 48 h, mean ± SD of three experiments, read-out: IC50 184-B5 (Breast, non-tumoral)
Experimental: as §1, §2, §3

HCT-116 = assay: MTT cell viability assay, HCT-116; format: cell-based, human; conditions: 10 µM, 48 h, MTT screening (Figure S1)
Experimental: as §1, §2, §3

[3] = test system: MDA-MB-231, HTB-54, and DU-145; assay: MTT dose-response in the three tumoral cell lines; format: cell-based, human; conditions: 48 h, read-out: IC50 toward the tumoral cell lines
Experimental: as §2, §3

[4] = test system: MDA-MB-231, HTB-54, DU-145, and HCT-116; assay: MTT initial screening in four tumor cell lines; format: cell-based; conditions: Homo sapiens, in at least three cell lines, 48 h, read-out: cell growth inhibition
Experimental: as §2

[5] = test system: panel of 60 cancer cell lines; assay: NCI60 One-Dose screening; format: cell-based; conditions: 1·10^−5 M, 48 h, mean of 60 cancer cell lines
Experimental: (§4) The ten compounds with the highest cell growth inhibition activity were submitted to the Developmental Therapeutics Program (DTP) of the National Cancer Institute (NCI). The assay consists of the evaluation of the cytotoxicity by a One-Dose screening at 10^−5 M against a panel of 60 cancer cell lines of different tumors (leukemia, lung, central nervous system (CNS), melanoma, ovarian, renal, prostate, and breast cancer cell lines). […] A range of 5000–40,000 cells/well were seeded and cultured in RPMI 1640 containing 5% of FBS and 2 mM L-glutamine and were inoculated into 96-well microtiter plates in 100 µL. The microtiter plates are incubated at 37 °C and 5% humidified CO2 for 24 h prior to the addition of experimental drugs. After that, an experimental drug was added, and the microtiter was incubated for 48 h.

[6] = test system: panel of 60 cancer cell lines; assay: NCI60 Five-Dose assay; format: cell-based; conditions: Five-Dose assay 0.01–100 µM, 48 h, 60 cell line panel
Experimental: as §4

DU-145 cells [7] = assay: Muse Annexin V/7-AAD apoptosis assay; format: cell-based, human; conditions: DU-145, 2.5 μM, 48 h
Experimental: (§5) The apoptosis assays were conducted using the Muse Caspase-3/7 assay kit and the Annexin V/7-AAD kit (EMD Millipore, Darmstadt, Germany) following the manufacturer’s instructions. Initially, DU-145 cells were seeded in 6-well plates at a density of 1 × 10^5 cells per well. After 24 h of incubation, the cells received treatment with 2.5 µM and 5 µM of compound 4. Subsequently, the cells were incubated for 48 h. Upon completion of the treatment period, the cells were harvested using enzyme-free Cell Dissociation Buffer. The samples were then subjected to the appropriate dyes according to the manufacturer’s instructions and analyzed using the Muse Cell Analyzer (Merck Millipore, Darmstadt, Germany).
Apoptosis was assessed using the Muse Annexin V & Dead Cell assay kit following the manufacturer’s guidelines.

DU-145 cells [8] = assay: Muse Caspase-3/7 assay; format: cell-based, human; conditions: DU-145, 2.5 and 5 µM, 48 h
Experimental: as §5

[9] = test system: apoptotic proteins in DU-145 cells; assay: Western blot of apoptotic proteins; format: cell-based, human; conditions: DU-145, 5 µM, 24 h
Experimental: Western blot analysis was conducted to evaluate changes in protein expression levels before and after treatment. In brief, DU-145 cells were treated with 5 µM of compound 4, and upon completing the designated treatment duration, cell lysis was achieved using RIPA buffer (Thermo Scientific, USA), supplemented with a protease inhibitor cocktail (Thermo Scientific, USA). Subsequently, the resulting lysates were chilled on ice for 30 min and then centrifuged at 10,000 rpm for 15 min to remove cellular debris. Total protein concentration was determined using the BCA assay (Thermo Scientific, USA). Equivalent quantities of cell lysates were separated using NuPAGE 4–12% gels (Life Technologies, Carlsbad, CA, USA), followed by electro-transfer onto a PVDF membrane. Various antibodies were employed to investigate protein expression levels, with detection accomplished using the Enhanced Chemiluminescent reagent (Life Technologies, USA). All antibodies utilized in this study were procured from Cell Signaling Technologies (Danvers, MA, USA).

[10] = 10 µM, MTT screening (Figure S1)

SMILES: O=[Se]=O [SeO2]
- cell viability (MDA-MB-231 cells; MDA-MB-231): at least 50%

SMILES: [Se] [elemental Se]
- effect on cell growth (MDA-MB-231 cells; MDA-MB-231 cells incubated alone with Se): no effect on cell growth
- type of cell death (DU-145 [1]): apoptotic cell death

SMILES: CC(=O)Oc1ccccc1C(=O)[Se]C(=NC(C)C)NC(C)C [Compound 4]
- percentage of cell growth, DU-145 (DU-145 [2]; [10]): -82.47%
- IC50 (DU-145 [2]; Homo sapiens, DU-145, MTT, mean ± SD of three experiments, read-out: IC50 DU-145 (Prostate)): 5.06 ± 0.02 µM
- percentage of cell growth, HTB-54 (HTB-54; [10]): -34.81%
- IC50 (HTB-54; Homo sapiens, HTB-54, MTT, mean ± SD of three experiments, read-out: IC50 HTB-54 (Lung)): 7.2 ± 1.81 µM
- percentage of cell growth, MDA-MB-231 (MDA-MB-231; 10 µM, 48 h, MTT screening (Figure S1)): -41.78%
- IC50 (MDA-MB-231; Homo sapiens, MDA-MB-231, MTT, 48 h, mean ± SD of three experiments, read-out: IC50 MDA-MB-231 (Breast)): 5.48 ± 0.42 µM
- Selectivity index (SI) (MDA-MB-231; IC50 184-B5/IC50 MDA-MB-231): 1.75
- IC50 (184-B5): 9.6 ± 0.97 µM
- percentage of cell growth, HCT-116 (HCT-116): 36.77%
- IC50 [3]: < 7.5 µM
- IC50 ([3]; Homo sapiens): < 10 µM
- inhibition at 10 µM [4]: > 50%
- mean value of cell growth, One-Dose assay [5]: −67.93%
- GI50 [6]: < 2 µM
- cells exhibiting signs of apoptosis (DU-145 cells [7]): over 25%
- caspase 3/7 activity (DU-145 cells [8]): dose-dependent increase
- Bax expression [9]: upregulation
- Bcl-2 expression [9]: Downregulation
- caspase-3 cleavage and activation [9]: increased the cleavage and activation
- expression of pro-caspase-9 [9]: reduction
